Converted amounts (≈) assume the structure as drawn. Where two headings read alike, the source gives them in different places. Bridge positions count the residues as written; N and C are the ends. Square brackets hold non-standard residues; d marks the D form. Peptide text beside a SMILES is read from it. * marks the point of attachment. Tetradecenoyl(2E,13-Me) = CC(C)CCCCCCCCC/C=C/C(=O)*; X1 = CC(C)CCCCCCCC/C=C/C(=O)*; Pip = O=C(O)[CH]1CCCCN1; Dap = NC[CH](N)C(=O)O
How the values were obtained:
Assay type in all cases: cell-based
[1] = system: E. faecalis GC 2242 (VRE); assay: MIC, broth dilution, E. faecalis GC 2242 (VRE); conditions: Enterococcus faecalis, 18 hours at 35° C., read-out: Antimicrobial Activity (MIC)
Method: (§1) The minimum inhibitory concentration (MIC), the lowest concentration of the antibiotic which inhibits growth of the test organism, is determined by the broth dilution method using Muller-Hinton II […] (Baltimore Biological Laboratories) following the recommendations of the National Committee for Clinical Laboratory Standards [Methods for dilution antimicrobial susceptibility tests for bacteria that grow aerobically, approved standard M7-A2, National Committee for Clinical Laboratory Standards, Villanova, Pa.].
(§2) An inoculum level of 5×10^5 CFU/mL, and a range of antibiotic concentrations (64–0.06 μg/mL) is used. The MIC is determined after the microtiter plates are incubated for 18 hours at 35° C. in an ambient air incubator. The test organisms include a spectrum of Gram-positive bacteria comprised of Staphylococcus sp., Streptococcus sp. and Enterococcus sp.
(§3) The in vitro antibacterial activity of AW998A, AW998B, AW998C and AW998D is determined against a spectrum of Gram-positive and Gram-negative bacteria by a standard broth dilution method. Serial dilution of the compounds are made in Mueller-Hinton broth and inoculated with a bacterial suspension. The lowest concentration of compound that inhibited the growth of a bacterial strain after 18 hours of incubation at 35° C. is reported as the minimal inhibitory concentration (MIC) for that strain.

S. aureus GC 2216 (ATCC) = assay: MIC, broth dilution, S. aureus GC 2216 (ATCC); conditions: Staphylococcus aureus, 18 hours at 35° C., read-out: Antimicrobial Activity (MIC)
Method: as §1, §2, §3

S. aureus GC 1131 (MRSA) = assay: MIC, broth dilution, S. aureus GC 1131 (MRSA); conditions: Staphylococcus aureus, 18 hours at 35° C., read-out: Antimicrobial Activity (MIC)
Method: as §1, §2, §3

[2] = system: C. albicans GC 3066 (Yeast); assay: MIC, broth dilution, C. albicans GC 3066 (Yeast); conditions: Candida albicans, read-out: Antimicrobial Activity (MIC)
E. coli GC 4559 (wt) = assay: MIC, broth dilution, E. coli GC 4559 (wt); conditions: Escherichia coli, read-out: Antimicrobial Activity (MIC)
Method: as §1, §2
(§4) The test organisms also include a spectrum of Gram-negative bacteria comprised of E. coli GC, M. catarrhalis and H. influenzae.
as §3

[3] = system: M. catarrhalis GC 6907* (clinical); assay: MIC, broth dilution, M. catarrhalis GC 6907 (clinical); conditions: Moraxella catarrhalis, read-out: Antimicrobial Activity (MIC)
Method: as §1, §2, §4, §3

[4] = system: S. aureus GC 4543 (Smith); assay: MIC, broth dilution, S. aureus GC 4543 (Smith); conditions: Staphylococcus aureus, 18 hours at 35° C., read-out: Antimicrobial Activity (MIC)
Method: as §1, §2, §3

[5] = system: H. influenzae GC 6896 <> (ATTC); assay: MIC, broth dilution, H. influenzae GC 6896 (ATTC); conditions: Haemophilus influenzae, read-out: Antimicrobial Activity (MIC)
Method: as §1, §2, §4, §3

[6] = system: B. subtilis GC 6344 (168); assay: MIC, broth dilution, B. subtilis GC 6344 (168); conditions: Bacillus subtilis, 18 hours at 35° C., read-out: Antimicrobial Activity (MIC)
Method: as §1, §2, §3

[7] = system: E. faecalis GC 4555 (ATCC); assay: MIC, broth dilution, E. faecalis GC 4555 (ATCC); conditions: Enterococcus faecalis, 18 hours at 35° C., read-out: Antimicrobial Activity (MIC)
Method: as §1, §2, §3

E.coil GC 4560 (imp) = assay: MIC, broth dilution, E.coil GC 4560 (imp); conditions: Escherichia coli, 18 h, read-out: Antimicrobial Activity (MIC)
Method: as §1, §2, §4, §3

S. pneumoniae GC 1894 = assay: MIC, broth dilution, S. pneumoniae GC 1894; conditions: Streptococcus pneumoniae, GC1894, 18 h, 18 hours at 35° C., read-out: Antimicrobial Activity (MIC)
Method: as §1, §2, §3

[8] = S. pneumoniae GC 1894* (5% LHB)

Row | SMILES | MIC [1] | MIC (S. aureus GC 2216 (ATCC)) | MIC (S. aureus GC 1131 (MRSA)) | MIC ([2]; C. albicans GC 3066 (Yeast), 18 hours at 35° C.) | MIC (E. coli GC 4559 (wt); E. coli GC 4559 (wt), 18 hours at 35° C.) | MIC ([3]; M. catarrhalis GC 6907* (clinical), 18 hours at 35° C.) | MIC [4] | MIC ([5]; H. influenzae GC 6896 <> (ATTC), 18 hours at 35° C.) | MIC [6] | MIC [7] | MIC (E.coil GC 4560 (imp)) | MIC (S. pneumoniae GC 1894; [8]) | MIC (S. pneumoniae GC 1894; S. pneumoniae GC 1894+ (THY)) | MIC ([2]; 18 h) | MIC (E. coli GC 4559 (wt); 18 h) | MIC ([3]; 18 h) | MIC ([5]; 18 h)
1 | CCC(C)C1NC(=O)C(C(C)O)NC(=O)CNC(=O)C(CC(=O)O)NC(=O)CNC(=O)C(CC(=O)O)NC(=O)CNC(=O)C2CCCCN2C(=O)C(NC(=O)C(CC(=O)O)NC(=O)/C=C/CCCCCCCCCC(C)C)CNC(=O)C2CCCN2C1=O (stereo not drawn) [AW998A] ({Tetradecenoyl(2E,13-Me)}-D[Dap][Pip]GDGDGTIP; lactam 2-C; configuration not given here) | 64 µg/mL (≈ 51.3 µM) | 8 µg/mL (≈ 6.41 µM) | 16 µg/mL (≈ 12.8 µM) | 128 µg/mL (≈ 103 µM) | > 128 µg/mL | > 128 µg/mL | 8 µg/mL (≈ 6.41 µM) | > 128 µg/mL | 32 µg/mL (≈ 25.7 µM) | 32 µg/mL (≈ 25.7 µM) | 32 µg/mL (≈ 25.7 µM) | 4 µg/mL (≈ 3.21 µM) | 2 µg/mL (≈ 1.6 µM) |  |  |  | 
2 | CC(C)CCCCCCCCC/C=C/C(=O)NC(CC(=O)O)C(=O)NC1CNC(=O)C2CCCN2C(=O)C(C(C)C)NC(=O)C(C(C)O)NC(=O)CNC(=O)C(CC(=O)O)NC(=O)CNC(=O)C(CC(=O)O)NC(=O)CNC(=O)C2CCCCN2C1=O (stereo not drawn) [AW998D] ({Tetradecenoyl(2E,13-Me)}-D[Dap][Pip]GDGDGTVP; lactam 2-C; configuration not given here) | 128 µg/mL (≈ 104 µM) | 128 µg/mL (≈ 104 µM) | 128 µg/mL (≈ 104 µM) |  |  |  | 128 µg/mL (≈ 104 µM) |  | 128 µg/mL (≈ 104 µM) | 128 µg/mL (≈ 104 µM) | > 128 µg/mL | 16 µg/mL (≈ 13 µM) | 128 µg/mL (≈ 104 µM) | > 128 µg/mL | > 128 µg/mL | > 128 µg/mL | > 128 µg/mL
3 | CCC(C)C1NC(=O)C(C(C)O)NC(=O)CNC(=O)C(CC(=O)O)NC(=O)CNC(=O)C(CC(=O)O)NC(=O)CNC(=O)C2CCCCN2C(=O)C(NC(=O)C(CC(=O)O)NC(=O)/C=C/CCCCCCCCC(C)C)CNC(=O)C2CCCN2C1=O (stereo not drawn) [AW998C] (X1-D[Dap][Pip]GDGDGTIP; lactam 2-C; configuration not given here) | 128 µg/mL (≈ 104 µM) | 64 µg/mL (≈ 51.9 µM) | 128 µg/mL (≈ 104 µM) |  |  |  | 64 µg/mL (≈ 51.9 µM) |  | 128 µg/mL (≈ 104 µM) | 128 µg/mL (≈ 104 µM) | > 128 µg/mL | 8 µg/mL (≈ 6.49 µM) | 64 µg/mL (≈ 51.9 µM) | > 128 µg/mL | > 128 µg/mL | > 128 µg/mL | > 128 µg/mL
